Tests used:
B16 melanoma = settings: subcutaneous transplantation; cited from earlier work
LEWIS lung cancer = settings: subcutaneous transplantation; cited from earlier work
S180 sarcoma = settings: subcutaneous transplantation; cited from earlier work
NK and IL-2 activity = settings: oral; lung cancer implanted mice and normal mice; cited from earlier work
MADB106 tumor cells = test: Pulmonary metastasis count after tail vein injection of MADB106 tumor cells, with or without β-receptor agonist MP; type: in vivo, Fischer rats; settings: for effect of β-receptor agonist on number of MADB106 metastases (in words): MP injected at tumor cell inoculation
Procedure: 3. The experimental animals were divided into a test group and a control group. The animals in the test group were fed with 0.1, 0.5, 2 g/kg body weight ACNO mixed and standard powdered rodent food to which water was added (test food), every day. The animals in the control group received the same wet food mixture without ACNO (control food) in the same amount. All animals were fed at regular times every day. To adjust animals to the feeding protocol, all rats received the wet mixture without ACNO for 3 days before each experiment. Thereafter, the animals were fed test food and control food, respectively. Rats from all groups consumed more than 95% of the food each day. Approximately 70% of it was consumed during the dark phase. Body weight of each animal was monitored twice a week during the experiment. 4. MADB106 tumor cell—MADB106 cell was obtained from a pulmonary metastasis of a mammary adenocarcinoma (MADB100) by a special incubation. 5. Induction and counting of tumor metastasis—Rats were lightly anesthetized with halothane, and then 10^5 MADB106 tumor cells were injected into their tail vein. […] Rats were anesthetized with halothane after they were fed with ACNO for 3 weeks counted from the day of tumor inoculation, and their lungs were removed and placed in Bouin solution (72% saturated picric acid solution, 23% formaldehyde [37% solution] and 5% glacial acetic acid) for 24 h. Thereafter, the lungs were washed with ethanol, and then the cell number of pulmonary metastasis were counted by two experimenters unaware of the group origin (in a blind technique), independently. The obtained data were analyzed statistically. […] healthy […] Fischer rats that were 7-8 weeks old and of 120-170 g body weight (48 females and 61 males), were randomly divided into 2 groups, an experiment group and a control group. […] Thereafter, the lungs were washed with ethanol, and then the cell number of pulmonary metastasis were counted by two experimenters unaware of the group origin (in a blind technique), independently. The obtained data were analyzed statistically.

Row | Compound | inhibition rate (B16 melanoma) | inhibition rate (LEWIS lung cancer) | inhibition rate (S180 sarcoma) | IL-2 activity (NK and IL-2 activity) | NK activity (NK and IL-2 activity) | effect of β-receptor agonist on number of MADB106 metastases (in words) (MADB106 tumor cells) | effect of β-receptor agonist on number of MADB106 metastases (in words) (MADB106 tumor cells; listed as Metaproterenol) | cell number of MADB106 metastases (MADB106 tumor cells; control food plus MP injection, NS controls 70+14)
1 | CC(C)=CCC[C@](C)(O)[C@H]1CC[C@]2(C)[C@@H]1[C@H](O)C[C@@H]1[C@@]3(C)CC[C@H](O[C@@H]4O[C@H](CO)[C@@H](O)[C@H](O)[C@H]4O[C@@H]4O[C@H](CO)[C@@H](O)[C@H](O)[C@H]4O)C(C)(C)[C@@H]3CC[C@]12C [Rg3, ginsenoside Rg3] | 50-60% | 50-60% | 50-60% | remarkably enhance | remarkably enhance | – | – | –
2 | CC(C)NCC(O)c1cc(O)cc(O)c1 (centres unmarked) [MP, Metaproterenol] | – | – | – | – | – | significantly increased the cells number of metastases | significantly increased the number of metastases | 255+32

— patent US6911221B2, “Anti-neoplastic drug” (priority 2001, dated 2005)
